These molecules were tested on SU-DHL-4 cell line (assay: SU-DHL-4 cell proliferation assay (Cell Titer-Glo viability)). Settings: Homo sapiens; cell viability IC50 activity level, DLBCL cell line SU-DHL-4, 120 hours post-treatment; read-out: SU-DHL-4 Act.
Assay type: cell-based
Protocol: SU-DHL-4 Cell Proliferation Assay.
The following is an example of an assay that can be used to determine the anti-proliferative activity of Isoindolinedione Compounds in a DLBCL cell line, for example, the SU-DHL-4 cell line (Deutsche Sammlung von Mikroorganismen and Zellkulturen GmbH [DSMZ]: catalogue number ACC-495) at 120 hours post-treatment. The seeding density for SU-DHL-4 can be optimized to ensure assay linearity in 1536-well plates.
Increasing concentrations of test compounds (0.5 nM to 10 μM) were spotted in a 20-point dilution fashion (unevenly spaced data points) via an acoustic dispenser (EDC ATS-100) into an empty 1536-well plate. The DMSO concentration was kept constant for a final assay concentration of 0.1% DMSO. Prior to testing, SU-DHL-4 cells were grown in RPMI-1640 (Roswell Park Memorial Institute—1640) medium with 10% FBS (fetal bovine serum: HyClone) and expanded in culture flasks to provide sufficient amounts of starting material. Cells were then diluted to 500 cells per well in a 5 μL volume, and added directly to the compound-spotted 1536-well plates. Cells were allowed to grow for 120 hours in 5% CO2 at 37° C. At the time when exposure of cells to compound began (to), initial viable cell number was assessed via Cell Titer-Glo® Luminescent Cell Viability Assay at a 1 vol:2 vol ratio according to manufacturer's instructions (Promega Corporation, Madison, Wis.) by quantifying the level of luminescence generated by adenosine-5′-triphosphate (ATP) present in viable cells. After 120 hours, cell viability of the treated cells was assessed via Cell Titer-Gb® and read for luminescence. All growth inhibition curves were processed and evaluated using Activity Base (IDBS, Alameda, Calif.). Cell viability IC50 values were calculated using a four parameter logistic model (sigmoidal dose-response model): y=(A+((B−A)/(1+((C/x)^D)))) wherein: A=YMin B=YMax C=EC50 D=Hill slope IC50=the concentration of the compound when Y=50% of DMSO control Y=cell viability measured as luminescence unit, and x=concentration of compound.

IC50 [µM] | Structure (SMILES)
0.2 to 0.5 | O=C1CCC(N2C(=O)c3cccc(NCc4ccc(CN5CC6CC(c7ccc(F)cc7)CC6C5)cc4)c3C2=O)C(=O)N1 [Cpd 64, 2-(2,6-dioxopiperidin-3-yl)-4-(4-(((3aR,5r,6aS)-5-(4-fluorophenyl)hexahydrocyclopenta [c]pyrrol-2-(1H)-yl)methyl)benzylamino)isoindoline-1,3-dione]
< 0.2 | NC(=O)c1ccc(N2CCN(Cc3ccc(CNc4cccc5c4C(=O)N([C@@H]4CCC(=O)NC4=O)C5=O)cc3)CC2)nc1 [Cpd 204, (R)-6-(4-(4-((2-(2,6-dioxopiperidin-3-yl)-1,3-dioxoisoindolin-4-ylamino)methyl)benzyl)piperazin-1-yl)nicotinamide]
0.2 to 0.5 | O=C1CCC(N2C(=O)c3cccc(NCc4ccc(CN5CCN(c6cnccn6)CC5)cc4)c3C2=O)C(=O)N1 (centres unmarked) [Cpd 185, 2-(2,6-dioxopiperidin-3-yl)-4-(4-((4-(pyrazin-2-yl)piperazin-1-yl)methyl)benzylamino)isoindoline-1,3-dione]
< 0.2 | NC(=O)c1ccc(N2CCN(Cc3ccc(CNc4cccc5c4C(=O)N([C@H]4CCC(=O)NC4=O)C5=O)cc3)CC2)cn1 [Cpd 58, (S)-5-(4-(4-((2-(2,6-dioxopiperidin-3-yl)-1,3-dioxoisoindolin-4-ylamino)methyl)benzyl)piperazin-1-yl)picolinamide]
0.2 to 0.5 | Cc1cc(C#N)cc(F)c1N1CCN(Cc2ccc(CNc3cccc4c3C(=O)N(C3CCC(=O)NC3=O)C4=O)cc2)CC1 (centres unmarked) [Cpd 27, 4-(4-(4-((2-(2,6-dioxopiperidin-3-yl)-1,3-dioxoisoindolin-4-ylamino)methyl)benzyl)piperazin-1-yl)-3-fluoro-5-methylbenzonitrile]
0.2 to 0.5 | O=C1CCC(N2C(=O)c3cccc(NCc4ccc(CN5CCN(c6ccc(C(F)(F)F)cn6)CC5)cc4)c3C2=O)C(=O)N1 (centres unmarked) [Cpd 119, 2-(2,6-dioxopiperidin-3-yl)-4-(4-((4-(5-(trifluoromethyl)pyridin-2-yl)piperazin-1-yl)methyl)benzylamino)isoindoline-1,3-dione]
0.2 to 0.5 | CCC1CCN(Cc2ccc(CNc3cccc4c3C(=O)N(C3CCC(=O)NC3=O)C4=O)cc2)CC1 (centres unmarked) [Cpd 22, 2-(2,6-dioxopiperidin-3-yl)-4-(4-((4-ethylpiperidin-1-yl)methyl)benzylamino)isoindoline-1,3-dione]
< 0.2 | N#Cc1ccc(C2CN(Cc3ccc(CNc4cccc5c4C(=O)N(C4CCC(=O)NC4=O)C5=O)c(F)c3)C2)cc1 (centres unmarked) [Cpd 104, 4-(1-(4-((2-(2,6-dioxopiperidin-3-yl)-1,3-dioxoisoindolin-4-ylamino)methyl)-3-fluorobenzyl)azetidin-3-yl)benzonitrile]
< 0.2 | O=C1CCC(N2C(=O)c3cccc(NCc4ccc(CN5C[C@@H]6CC(c7ccc(F)cc7)=C[C@@H]6C5)cc4)c3C2=O)C(=O)N1 (stereo in doubt) [Cpd 59, 2-(2,6-dioxopiperidin-3-yl)-4-(4-(((3aS,6aR)-5-(4-fluorophenyl)-3,3a,6,6a-tetrahydrocyclopenta[c]pyrrol-2(1H)-yl)methyl)benzylamino)isoindoline-1,3-dione]
0.2 to 0.5 | O=C1CCC(N2C(=O)c3cccc(NCc4ccc(CN5Cc6cccc(C(F)(F)F)c6C5)cc4)c3C2=O)C(=O)N1 (centres unmarked) [Cpd 164, 2-(2,6-dioxopiperidin-3-yl)-4-(4-((4-(trifluoromethyl)isoindolin-2-yl)methyl)benzylamino)isoindoline-1,3-dione]
< 0.2 | N#Cc1ccc(C2CN(Cc3ccc(CNc4cccc5c4C(=O)N(C4CCC(=O)NC4=O)C5=O)cc3F)C2)cc1 (centres unmarked) [Cpd 102, 4-(1-(4-((2-(2,6-dioxopiperidin-3-yl)-1,3-dioxoisoindolin-4-ylamino)methyl)-2-fluorobenzyl)azetidin-3-yl)benzonitrile]

Continued, molecule first:

Structure (SMILES) | IC50 [µM]
Cc1cc(CNc2cccc3c2C(=O)N(C2CCC(=O)NC2=O)C3=O)ccc1CN1CCC(C(F)F)CC1 (centres unmarked) [Cpd 48, 4-(4-((4-(difluoromethyl)piperidin-1-yl)methyl)-3-methylbenzylamino)-2-(2,6-dioxopiperidin-3-yl)isoindoline-1,3-dione] | 0.2 to 0.5
CC(C)(C)N1CCN(Cc2ccc(CNc3cccc4c3C(=O)N(C3CCC(=O)NC3=O)C4=O)cc2F)CC1 (centres unmarked) [Cpd 93, 4-(4-((4-tert-butylpiperazin-1-yl)methyl)-3-fluorobenzylamino)-2-(2,6-dioxopiperidin-3-yl)isoindoline-1,3-dione] | < 0.2
O=C1CCC(N2C(=O)c3cccc(NCc4ccc(CN5CCN(c6noc7ccccc67)CC5)cc4F)c3C2=O)C(=O)N1 (centres unmarked) [Cpd 176, 4-(4-((4-(benzo[d]isoxazol-3-yl)piperazin-1-yl)methyl)-2-fluorobenzylamino)-2-(2,6-dioxopiperidin-3-yl)isoindoline-1,3-dione] | < 0.2
CN1CCC2(CCN(Cc3ccc(CNc4cccc5c4C(=O)N(C4CCC(=O)NC4=O)C5=O)cc3F)CC2)C1=O (centres unmarked) [Cpd 153, 2-(2,6-dioxopiperidin-3-yl)-4-(3-fluoro-4-((2-methyl-1-oxo-2,8-diazaspior[4.5]decan-8-yl)methyl)benzylamino)isoindoline-1,3-dione] | 0.501 to 0.75
Cc1cc(CNc2cccc3c2C(=O)N(C2CCC(=O)NC2=O)C3=O)ccc1CN1CC2(CCOC2)C1 (centres unmarked) [Cpd 243, 4-(4-(6-oxa-2-azaspiro[3.4]octan-2-ylmethyl)-3-methylbenzylamino)-2-(2,6-dioxopiperidin-3-yl)isoindoine-1,3-dione] | < 0.2
O=C1CCC(N2C(=O)c3cccc(NCc4ccc(CN5CCCOCC5)cc4F)c3C2=O)C(=O)N1 (centres unmarked) [Cpd 242, 4-(4-((1,4-oxazepan-4-yl)methyl)-2-fluorobenzylamino)-2-(2,6-dioxopiperidin-3-yl)isoindoline-1,3-dione] | 0.2 to 0.5
Cc1cc(CNc2cccc3c2C(=O)N(C2CCC(=O)NC2=O)C3=O)ccc1CN1CC2(COC2)C1 (centres unmarked) [Cpd 228, 4-(4-(2-oxa-6-aaspiro[3.3]heptan-6-ylmethyl)-3-methylbenzylamino)-2-(2,6-dioxopiperidin-3-yl)isoindoline-1,3-dione] | 0.2 to 0.5
Cc1cc(CNc2cccc3c2C(=O)N(C2CCC(=O)NC2=O)C3=O)ccc1CN1CCC2(CCOC2)CC1 (centres unmarked) [Cpd 233, 4-(4-(2-oxa-8-azaspiro[4.5]decan-8-ylmethyl)-3-methylbenzylamino)-2-(2,6-dioxopiperidin-3-yl)isoindoline-1,3-dione] | < 0.2
C[C@@H]1COC[C@H](C)N1C1CN(Cc2ccc(CNc3cccc4c3C(=O)N(C3CCC(=O)NC3=O)C4=O)c(F)c2)C1 (stereo partly drawn) [Cpd 249, 4-(4-((3-((3S,5R)-3,5-dimethylmorpholino)azetidin-1-yl)methyl)-2-fluorobenzylamino)-2-(2,6-dioxopiperidin-3-yl)isoindoline-1,3-dione] | < 0.2
CCc1nsc(N2CCN(Cc3ccc(CNc4cccc5c4C(=O)N(C4CCC(=O)NC4=O)C5=O)cc3)CC2)n1 (centres unmarked) [Cpd 197, 2-(2,6-dioxopiperidin-3-yl)-4-(4-((4-(3-ethyl-1,2,4-thiadiazol-5-yl)piperazin-1-yl)methyl)benzylamino)isoindoline-1,3-dione] | < 0.2
O=C1CCC(N2C(=O)c3cccc(NCc4ccc(CN5CCN(C(=O)c6ccccc6F)CC5)cc4F)c3C2=O)C(=O)N1 (centres unmarked) [Cpd 188, 2-(2,6-dioxopiperidin-3-yl)-4-(2-fluoro-4-((4-(2-fluorobenzoyl)piperazin-1-yl)methyl)benzylamino)isoindoline-1,3-dione] | 0.751 to 1
Cc1cc(CNc2cccc3c2C(=O)N(C2CCC(=O)NC2=O)C3=O)ccc1CN1CC(N2C3CCC2COC3)C1 (centres unmarked) [Cpd 247, 4-(4-((3-(3-oxa-8-azabicyclo[3.2.1]octan-8-yl)azetidin-1-yl)methyl)-3-methylbenzylamino)-2-(2,6-dioxopiperidin-3-yl)isoindoline-1,3-dione] | < 0.2
Cc1cc(CNc2cccc3c2C(=O)N(C2CCC(=O)NC2=O)C3=O)ccc1CN1CCC2(CC1)CC(F)(F)C2 (centres unmarked) [Cpd 47, 4-(4-((2,2-difluoro-7-azaspiro[3.5]nonan-7-yl)methyl)-3-methylbenzylamino)-2-(2,6-dioxopiperidin-3-yl)isoindoline-1,3-dione] | < 0.2
Cc1cc(CNc2cccc3c2C(=O)N(C2CCC(=O)NC2=O)C3=O)ccc1CN1CC2(CCCO2)C1 (centres unmarked) [Cpd 232, 4-(4-(5-oxa-2-azaspiro[3.4]octan-2-ylmethyl)-3-methylbenzylamino)-2-(2,6-dioxopiperidin-3-yl)isoindoline-1,3-dione] | < 0.2
O=C1CCC(N2C(=O)c3cccc(NCc4ccc(CN5CC6(CCC6)C5)cc4F)c3C2=O)C(=O)N1 (centres unmarked) [Cpd 137, 4-(4-(2-azaspiro[3.3]heptan-2-ylmethyl)-2-fluorobenzylamino)-2-(2,6-dioxopiperidin-3-yl)isoindoline-1,3-dione] | < 0.2
